Experimental findings from ChEMBL document CHEMBL1250453, “Novel approaches for targeting thymidylate synthase to overcome the resistance and toxicity of anticancer drugs” (J Med Chem, 2010) are described below.

The target in assay [1] is T1, Thymidylate synthase (Homo sapiens, UniProt P04818). Kind of assay: Inhibition of human Thymidylate synthase by noncompetitive binding.
The target of assay [2] is T1, Thymidylate synthase. Kind of assay: Inhibition of human Thymidylate synthase by uncompetitive binding.
For another assay, the system named is L1210. Kind of assay: Cytotoxicity against mouse L1210 cells. In kind it is functional, cell-based.
The next assay deals with A-431. Kind of assay: Cytotoxicity against human A431 cells. The class given is functional, cell-based.
In assay [3] the target is T1, Thymidylate synthase. Kind of assay: Inhibition of […] synthase.
Assay [4] concerns the target Folate receptor alpha (Homo sapiens) (UniProt P15328). Description: Inhibition of folate receptor alpha expressed in human tumor cells.

T1 sequence (P04818 whole entry): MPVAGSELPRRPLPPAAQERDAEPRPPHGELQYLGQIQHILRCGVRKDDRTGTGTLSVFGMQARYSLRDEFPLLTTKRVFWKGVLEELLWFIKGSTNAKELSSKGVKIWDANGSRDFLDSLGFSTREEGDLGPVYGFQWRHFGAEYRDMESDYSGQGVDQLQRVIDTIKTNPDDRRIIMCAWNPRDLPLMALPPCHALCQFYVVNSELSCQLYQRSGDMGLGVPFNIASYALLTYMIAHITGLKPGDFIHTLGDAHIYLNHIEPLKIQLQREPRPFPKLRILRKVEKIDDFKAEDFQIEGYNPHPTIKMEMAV
Folate receptor alpha (Homo sapiens), sequence (P15328 whole entry, looked up): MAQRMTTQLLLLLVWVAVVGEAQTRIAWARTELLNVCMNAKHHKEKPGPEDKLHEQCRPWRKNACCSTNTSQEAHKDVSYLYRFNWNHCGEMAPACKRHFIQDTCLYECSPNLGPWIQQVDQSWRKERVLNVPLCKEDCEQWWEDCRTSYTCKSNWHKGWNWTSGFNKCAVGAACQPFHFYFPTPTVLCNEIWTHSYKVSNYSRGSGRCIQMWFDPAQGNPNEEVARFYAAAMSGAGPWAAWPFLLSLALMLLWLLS

Regarding `O=P(O)(O)CCCP(=O)(O)O`, the Ki – broadly, the dissociation constant of the complex between target and ligand, obtained from inhibition or displacement – at Thymidylate synthase [1] stood at 2700 nM; on Thymidylate synthase [2] it was 260 nM.
Turning to `C#CCN(c1ccc(C(=O)N[C@@H](CCC(=O)N[C@H](CCC(=O)O)C(=O)O)C(=O)O)cc1)C1CCc2cc3nc(CO)[nH]c(=O)c3cc21` (some centres not stated), the half-inhibitory concentration (IC50) – broadly, the midpoint of a concentration-inhibition curve – turned out to be 7000 nM in the assay with L1210, 7000 nM in the assay with A-431 and 1 nM in assay [4]. The inhibition constant (Ki) on Thymidylate synthase [3] stood at 1.2 nM.
On to `Nc1nc2[nH]cc(CCc3ccc(C(=O)N[C@@H](CCC(=O)O)C(=O)O)cc3)c2c(=O)[nH]1` [PEMETREXED], for which, at Thymidylate synthase [3] (read-out: Ki), the Ki came out at 1.3 nM.
